The text below walks through data of patent US5534533A, “Carboxylate derivatives exhibiting phospholipase A2 inhibitory activity” (Shionogi & Co., Ltd., priority 1993, dated 1996).

The target of one assay is T1, Human secretory PLA2 (Homo sapiens, UniProt P14555).
T1 sequence (P14555 21-144): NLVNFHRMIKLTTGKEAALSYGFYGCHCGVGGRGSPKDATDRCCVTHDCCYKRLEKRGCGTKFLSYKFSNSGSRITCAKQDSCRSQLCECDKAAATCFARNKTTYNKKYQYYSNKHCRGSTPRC
As to the kind of experiment: Secretory PLA2 inhibitory activity (diheptanoyl thio PC substrate, absorbance at 405 nm). In kind it is biochemical. The settings on record: diheptanoyl thio PC 1 mM, Triton X100 0.3 mM, pH 7.3, CaCl2 10 mM, 30 minutes, read-out: s-PLA2 Inhibition IC50. Here is the method: Secretory PLA2 activity was assayed according to the method described in Penynolds L. J., Hughes L. L., Dennis E. A. et al. Anal. Biochem. 201,190-197 (1992).
Diheptanoyl thiophosphatidylcholine which was prepared according to the procedure described in the literature was used as a substrate. Human secretory PLA2 was used as an enzyme. The diheptanoyl thio PC (1 mM) was reacted with the human secretory PLA2 in the presence of Triton X100 (0.3 mM) and 5,5'-dithiobis-(2-nitrobenzoic acid) (125 μM) in Tris buffer (25 mM, pH 7.3), CaCl2 (10 mM), KCI (100 mM), bovine serum albumin (1.0 mg/ml), and then the change in absorbance at 405 nm at the time of 30 minutes after the reaction was assayed.
Inhibitory activity (%) was estimated by the formula: [(the change in absorbance with the inhibitor and PLA2 ·the change in absorbance with the inhibitor and without PLA2)/(the change in absorbance without the inhibitor and with PLA2 ·the change in absorbance without the inhibitor and PLA2)]×100.
IC50 value (μM) was calculated from graph showing inhibitory values on the vertical axis and log of concentrations of the inhibitor on the horizontal axis.

For assay [1], the target named is T2, intracellular PLA2 (cytosolic PLA2, cPLA2) (Homo sapiens, UniProt P47712).
T2 sequence (P47712 1-749): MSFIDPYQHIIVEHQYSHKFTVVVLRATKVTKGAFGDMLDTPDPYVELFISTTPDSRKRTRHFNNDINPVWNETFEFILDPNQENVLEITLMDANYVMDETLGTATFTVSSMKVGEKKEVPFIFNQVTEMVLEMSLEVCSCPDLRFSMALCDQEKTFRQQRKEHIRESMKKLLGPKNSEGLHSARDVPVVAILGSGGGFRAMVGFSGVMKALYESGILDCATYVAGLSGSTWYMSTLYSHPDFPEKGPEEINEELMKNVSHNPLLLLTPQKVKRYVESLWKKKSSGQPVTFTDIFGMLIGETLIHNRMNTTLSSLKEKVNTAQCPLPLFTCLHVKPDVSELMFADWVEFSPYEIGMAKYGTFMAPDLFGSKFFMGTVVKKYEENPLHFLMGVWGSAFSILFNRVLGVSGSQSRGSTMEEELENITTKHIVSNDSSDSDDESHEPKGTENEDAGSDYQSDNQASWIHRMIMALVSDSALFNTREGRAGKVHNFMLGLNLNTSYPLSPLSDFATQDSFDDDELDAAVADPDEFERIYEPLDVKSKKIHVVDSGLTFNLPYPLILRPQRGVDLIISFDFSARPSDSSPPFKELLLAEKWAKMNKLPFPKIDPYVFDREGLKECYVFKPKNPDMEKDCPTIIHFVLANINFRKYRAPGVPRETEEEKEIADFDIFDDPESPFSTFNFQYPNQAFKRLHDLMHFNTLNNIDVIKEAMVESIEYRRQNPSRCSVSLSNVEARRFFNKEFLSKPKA
The assay is described as follows: Intracellular PLA2 (cPLA2) inhibitory activity (14C-arachidonyl phosphatidylcholine substrate). The conditions noted are these: 2 μM radiolabelled phosphatidylcholine, 1 μM dioleoylglycerol, 1 mM CaCl2, pH 7.4; read-out: c-PLA2 Inhibition IC50. In kind it is biochemical. Here is the method: cPLA2 activity was assayed according to the method described in R. M. Kramer, E. F. Roberts, J. Manetta and J. E. Putnam, J. Biol. Chem., 268 (8), 5268-5272 (1991). Briefly, intracellular PLA2 activity was assayed using supersonic treated […] which contain 1-palmitoyl-2-[^14 C]arachidonyl-sn-glycero-3-phosphocholine and sn-1, 2-dioleoylglycerol at a molar ratio of 2:1. This test mixture contained 1 mM CaCl2, 2 mM dithiothreitol, 150 mM NaCl, 50 mM Hepes, pH 7.4 and 0.1 mg/ml BSA. A substrate is a 2 μM radioisotope labelled phosphatidylcholine ribosome containing 1 μM dioleoylglycerol. IC50 value is calculating in the same manner as in calculating it for secretory PLA2 inhibitory activity.

Each structure is given as a SMILES string. A value given as a limit tells only on which side of the number the result lay.

Take `COc1c(C)c(OC(=O)c2c(C)c(C)c(OCCCOc3ccc(C(N)=O)cc3)c(C)c2OC)c(C)c(C)c1C(N)=O` [Example 45, 4-{4-[3-(4-Carbamoylphenoxy)propoxy]-2-methoxy-3,5,6-trimethylbenzoyloxy}-2-methoxy-3,5,6-trimethylbenzamide]: the IC50 on Human secretory PLA2 is 0.29 µM; in assay [1] it was over 50 µM.

For the molecule `COC(=O)c1ccc(OCCCOc2c(C)c(C)c(C(=O)Oc3c(C)c(C)c(C(N)=O)c(OC)c3C)c(OC)c2C)cc1` [Example 46, 4-{4-[3-(4-Methoxycarbonylphenoxy)propoxy]-2methoxy-3,5,6-trimethylbenzoyloxy}-2-methoxy-3,5,6 trimethylbenzamide], the IC50 on Human secretory PLA2 is 0.74 µM; in assay [1], over 50 µM.

As for `COc1c(C)c(OC(=O)c2c(C)c(C)c(OCCCOc3ccc(C(=O)O)cc3)c(C)c2OC)c(C)c(C)c1C(N)=O` [Example 47, 4-{4-[3-(4-Carboxyphenoxy)propoxy]-2-methoxy-3,5,6-trimethylbenzoyloxy}-2-methoxy-3,5,6-trimethylbenzamide], the IC50 on Human secretory PLA2 was 0.22 µM; in assay [1], 22 µM.

As to `COc1c(C)c(OC(=O)c2c(C)c(C)c(OCCC=C(c3ccccc3)c3ccccc3)c(C)c2OC)c(C)c(C)c1C(=O)O` [Example 48, 4-[4-(4,4-Diphenylbut-3-enyloxy)-2-methoxy-3,5,6-trimethylbenzoyloxy]-2-methoxy-3,5,6-trimethylbenzoic Acid], the IC50 is 12 µM on Human secretory PLA2 and 3 µM in assay [1].

As for `COc1c(C)c(OC(=O)c2c(C)c(C)c(OCCC(C)CCCC(C)C)c(C)c2OC)c(C)c(C)c1C(=O)O` (centres unmarked) [Example 50, 4-[4-(3,7-Dimethyloctyloxy)-2-methoxy-3,5,6-trimethylbenzoyloxy]-2-methoxy-3,5,6-trimethylbenzoic Acid], the figures for the IC50 (on Human secretory PLA2; in assay [1]) were 50 µM and 3 µM, respectively.

As to `COc1c(C)c(OC(=O)c2c(C)c(C)c(OCCCN(S(=O)(=O)c3ccccc3)S(=O)(=O)c3ccccc3)c(C)c2OC)c(C)c(C)c1C(=O)O` [Example 51, 4-{4-[(3-Bisphenylsulfonylamino)propoxy]-2-methoxy-3,5,6-trimethylbenzoyloxy}-2-methoxy-3,5,6-trimethylbenzoic Acid], the IC50 on Human secretory PLA2 came to 2.1 µM; in assay [1] it was 4.2 µM.

Turning to `COc1c(C)c(OC(=O)c2c(C)c(C)c(OCCCN(S(C)(=O)=O)S(=O)(=O)c3ccccc3)c(C)c2OC)c(C)c(C)c1C(=O)O` [Example 52], the IC50 at Human secretory PLA2 was 4.5 µM; in assay [1] it was 21 µM.

Turning to `COc1c(C)c(OC(=O)c2c(C)c(C)c(OCCCN(C)S(=O)(=O)c3ccccc3)c(C)c2OC)c(C)c(C)c1C(=O)O` [Example 53], the IC50 at Human secretory PLA2 amounted to 6 µM; in assay [1], 20 µM.

On to `COc1c(C)c(OC(=O)c2c(C)c(C)c(OCCCNS(=O)(=O)c3ccccc3)c(C)c2OC)c(C)c(C)c1C(=O)O` [Example 54, 4-{4-[(3-Phenylsulfonylamino)propoxy]-2-methoxy-3,5,6-trimethylbenzoyloxy}-2-methoxy-3,5,6-trimethylbenzoic Acid], for which the concentration for half-maximal inhibition (IC50) on Human secretory PLA2 was 17 µM; in assay [1] it was over 50 µM.

Regarding `COc1c(C)c(OC(=O)c2c(C)c(C)c(OCCCN(S(=O)(=O)c3ccc(F)cc3)S(=O)(=O)c3ccc(F)cc3)c(C)c2OC)c(C)c(C)c1C(=O)O` [Example 55, 4-{4-[3-bis(4-Fluorophenyl)sulfonylaminopropoxy]-2-methoxy-3,5,6-trimethylbenzoyloxy}-2-methoxy-3,5,6-trimethylbenzoic Acid], the values for the IC50 (at Human secretory PLA2; in assay [1]) were 6.8 µM and 6.3 µM, respectively.

On to `COc1c(C)c(OC(=O)c2c(C)c(C)c(OCCCNS(=O)(=O)c3ccc(F)cc3)c(C)c2OC)c(C)c(C)c1C(=O)O` [Example 56, 4-{4-[3-(4-Fluorophenyl)sulfonylaminopropoxy]-2-methoxy-3,5,6-trimethylbenzoyloxy}-2-methoxy-3,5,6 trimethylbenzoic Acid], for which the IC50 was 14 µM on Human secretory PLA2 and over 50 µM in assay [1].

`COc1c(C)c(OC(=O)c2c(C)c(C)c(OCCCN(S(C)(=O)=O)S(=O)(=O)c3ccc(F)cc3)c(C)c2OC)c(C)c(C)c1C(=O)O` [Example 57, 4-{4-[3-Methylsulfonyl-(4-fluorophenyl)sulfonylaminopropoxy]-2-methoxy-3,5,6-trimethylbenzoyloxy}-2-methoxy-3,5,6-trimethylbenzoic Acid]: the IC50 at Human secretory PLA2 is 5.7 µM; in assay [1], 16 µM.

For the molecule `COc1c(C)c(OC(=O)c2c(C)c(C)c(OCCCN(C)S(=O)(=O)c3ccc(F)cc3)c(C)c2OC)c(C)c(C)c1C(=O)O` [Example 58, 4-{4-[3-Methyl-(4-fluorophenyl)sulfonylaminopropoxy]-2-methoxy-3,5,6-trimethylbenzoyloxy}-2-methoxy-3,5,6-trimethylbenzoic Acid], the IC50 at Human secretory PLA2 came to 5.3 µM; in assay [1] it was 26 µM.

`COc1c(C)c(OC(=O)c2c(C)c(C)c(OCCCN(C(=O)OC(C)(C)C)S(C)(=O)=O)c(C)c2OC)c(C)c(C)c1C(=O)O` [Example 59, 4-[4-(3-t-Butoxycarbonylmethylsulfonylaminopropoxy)-2-methoxy-3,5,6-trimethylbenzoyloxy]-2-methoxy-3,5,6-trimethylbenzoic Acid]: the figures for the IC50 (on Human secretory PLA2; in assay [1]) were 11 µM and over 50 µM, respectively.

As to `COc1c(C)c(OC(=O)c2c(C)c(C)c(OCCCN(S(C)(=O)=O)S(C)(=O)=O)c(C)c2OC)c(C)c(C)c1C(=O)O` [Example 60, 4-[4-(3-bis-Methylsulfonylaminopropoxy)-2-methoxy-3,5,6-trimethylbenzoyloxy]-2-methoxy-3,5,6-trimethylbenzoic Acid], the IC50 is 28 µM on Human secretory PLA2 and over 50 µM in assay [1].

For `COc1c(C)c(OC(=O)c2c(C)c(C)c(OCCCNC(=O)c3ccccc3)c(C)c2OC)c(C)c(C)c1C(=O)O` [Example 61, 4-[4-(3-Benzoylaminopropoxy)-2-methoxy-3,5,6-trimethylbenzoyloxy}-2-methoxy-3,5,6-trimethylbenzoic Acid], the values for the IC50 (on Human secretory PLA2; in assay [1]) were 33 µM and over 50 µM, respectively.

On to `COc1c(C)c(OC(=O)c2c(C)c(C)c(OCCCN(C(=O)c3ccccc3)C(=O)c3ccccc3)c(C)c2OC)c(C)c(C)c1C(=O)O` [Example 62, 4-[4-(3-Dibenzoylaminopropoxy)-2-methoxy-3,5,6-trimethylbenzoyloxy}-2-methoxy-3,5,6-trimethylbenzoic Acid], for which the IC50 came out at 3.8 µM on Human secretory PLA2 and 9.5 µM in assay [1].

Regarding `COc1c(C)c(OC(=O)c2c(C)c(C)c(OCCCN(Cc3ccccc3)Cc3ccccc3)c(C)c2OC)c(C)c(C)c1C(=O)O` [Example 63, 4-{4-[3-(bis-Benzylamino)propoxy]-2-methoxy-3,5,6-trimethylbenzoyloxy}-2-methoxy-3,5,6-trimethylbenzoic Acid], the half-inhibitory concentration (IC50) at Human secretory PLA2 was 12 µM; in assay [1], 2.5 µM.

Consider `COc1c(C)c(OC(=O)c2c(C)c(C)c(OCCCN3C(=O)c4ccccc4C3=O)c(C)c2OC)c(C)c(C)c1C(=O)O` [Example 64, 4-{4-[3-(1,3-Dioxo-1,3-dihydroisoindol-2-yl)-propoxy]-2-methoxy-3,5,6-trimethylbenzoyloxy}-2-methoxy-3,5,6-trimethylbenzoic Acid], for which the IC50 stood at 6.4 µM at Human secretory PLA2 and 25 µM in assay [1].
